Test results reported in patent publication US11001605B2, “Cyclic dinucleotides containing benzimidazole, method for the production of same, and use of same to activate stimulator of interferon genes (sting)-dependent signaling pathways” (BIOLOG LIFE SCIENCE INSTITUTE GmbH & Co. KG, priority 2016, dated 2021).

Tests used:
[1] = Lipophilicity determination by gradient HPLC (log k′g); assay type: physicochemical; conditions: HPLC gradient 1, RP-18, triethylammonium phosphate buffer pH 6.5 / methanol (ion pair chromatography)
Experimental: Gradient 1: Stationary phase: Polygosil 60-10, RP-18; 250×4 mm (Macherey & Nagel, DOren, Germany). Mobile phase A: 10 ml 1 M triethylammonium phosphate buffer (TEAP), pH 6.5+990 ml methanol. Mobile phase B: 10 ml 1 M TEAP, pH 6.5+990 ml H2O. Time program: 0 min: 100% B; 60 min: 100% A; 65 min: 100% A; 70 min: 100% B; 90 min: 100% B. Flow rate: 1.0 ml/min.
The octanol/water coefficient Log P is the commonly accepted indicator for the expected property of a given chemical entity to pass cellular membranes by passive diffusion. However, its practical determination for polar compounds such as multiply charged nucleotides is difficult in reality. Often, the information about membrane permeability must be received by fragmental analysis or other calculations.
Given this fact, an established HPLC method is used here, which is based on the measurement of retention on a reversed phase column^7. In contrast to Log P, this method yields the indicator log k′g, which allows for a ranking of different nucleotides of the same charge according to their lipophilicity.
Since CDNs are twofold negatively charged molecules which are only very insufficiently retarded on a reversed phase HPLC column, the determinations were performed in presence of the lipophilic triethylammonium cation (ion pair chromatography).
According to the established method^7 HPLC gradient 1 was used for the determination of lipophilicity.

[2] = test system: THP1 Dual KO STING cells; assay: SEAP reporter assay in THP1 Dual KO STING control cells; assay type: cell-based, human; conditions: 40 μg/ml, 24 hours (FIG. 2)
Experimental: (§1) Legend for Synthesis 5: THP1-Blue™ cells ((THP1-ISG); InvivoGen, catalogue number: thp-isg; concentration: 5×10^5/ml, 180 μl/well (96-well-plate) and THP1 Dual™ KO STING cells ((STING KO) InvivoGen, catalogue number: thpd-kostg; concentration: 5×10^5/ml, 180 μl/well (96-well-plate) were incubated with inventive CDNs (concentration 40 μg/ml each) in medium (RPMI-1640, 2 mM L-glutamine, 1.5 g/I sodium bicarbonate, 4.5 g/I glucose, 10 mM HEPES, 1 mM sodium pyruvate, 10% FCS, 100 μg/mL Zeocin™, 110 μg/mL Normocin™, Pen-Strep 50 U/mL) for 24 hours at 37° C. in 5% CO2. For incubations with THP1 Dual™ KO STING cells, 10 μg/ml of blasticidin were added to the medium. Quantification was performed with SEAP detection reagent QUANTI-Blue™ (InvivoGen; catalogue number: rep-qb1; incubation time: 15 min at 37° C. in 5% CO2) by optical density (OD) determination at 625 nm.

[3] = test system: STING signalling pathway; assay: Interferon-β promoter SEAP reporter assay in THP1-Blue cells; assay type: cell-based, human; conditions: 0, 10, 20, 40 μg/ml, 24 hours
Experimental: Legend for Synthesis 4: THP1-Blue™ cells ((THP1-ISG); InvivoGen, catalogue number: thp-isg; concentration: 5×10^5/ml, 180 μl/well (96-well-plate) were incubated with inventive CDNs in different concentrations (0 μg/ml; 10 μg/ml; 20 μg/ml; 40 μg/ml) in medium (RPMI-1640, 2 mM L-glutamine, 1.5 g/I sodium bicarbonate, 4.5 g/I glucose, 10 mM HEPES, 1 mM sodium pyruvate, 10% FCS, 100 μg/ml Zeocin™, 110 μg/ml Normocin™, Pen-Strep 50 U/ml) for 24 hours at 37° C. in 5% CO2. The quantification was performed with SEAP detection reagent QUANTI-Blue™ (InvivoGen; catalogue number: rep-qb1; incubation time: 30 min at 37° C. in 5% CO2) by optical density (OD) determination at 625 nm.
as §1
Cell line: THP1-Blue™ cells (InvivoGen, catalogue number: thp-isg) are derived from THP1 cells. THP1-Blue™ cells in a cell culture dish are stimulated by the administration of a CDN according to the invention or a buffer control.
In these genetically modified cells, the gene for secreted embryonic alkaline phosphatase (SEAP) is under the control of an interferon-β promoter.
After stimulation of the cells with an inventive CDN, the supernatant of the cell culture was removed and the enzymatic activity of SEAP was measured photometrically in a colorimetric assay by measuring the extinction at 625 nm (optical density; OD 625 nm).
Administration of an inventive CDN induces an increase in the activity of SEAP, which is a measure of the activity of the STING signalling pathway.

Row | log k′g ([1]; listed as 29, MI2) | log k′g ([1]; listed as 98, MI1) | log k′g [1] | Structure (SMILES) | effect of elevated OD at 625 nm in STING knock out cells [2] | SEAP activity, elevated OD at 625 nm, concentration-dependent [3]
1 | 2.403 | – | – | Nc1nc2c(ncn2[C@@H]2O[C@@H]3COP(=O)(S)OC4C(O)[C@H](n5cnc6cc(Cl)c(Cl)cc65)O[C@@H]4COP(=O)(S)OC2C3O)c(=O)[nH]1 (single isomer, unassigned) [Compound 29, MI2, Cyclic (guanosine-(2′→5′)-monophosphorothioate-5,6-dichlorobenzimidazole riboside-(3′→5′)-monophosphorothioate)] | no longer observed | positive
2 | – | 1.524 | – | Nc1ncnc2c1ncn2[C@@H]1O[C@@H]2COP(=O)(S)OC3C(O)[C@@H](COP(=O)(S)OC2C1O)O[C@H]3n1cnc2ccccc21 (single isomer, unassigned) [Compound 98, MI1, Cyclic (adenosine-(3′→5′)-monophosphorothioate-benzimidazole riboside-(2′→5′)-monophosphorothioate)] | no longer observed | positive
3 | – | – | 1.322 | Nc1ncnc2c1ncn2[C@@H]1O[C@@H]2COP(=O)(O)OC3C(O)[C@H](n4cnc5ccccc54)O[C@@H]3COP(=O)(O)OC2C1F (stereo partly drawn) [Compound 79, cyclic (2′-fluoro-2′-deoxyadenosine-(3′ −> 5′)-monophosphate-benzimidazole riboside-(3′ −> 5′)-monophosphate)] | no longer observed | positive
